In ChEMBL document CHEMBL1130549, “Dihydroisoquinolone RGD mimics. Exploration of the aspartate isostere” (Bioorg Med Chem Lett, 1997) one finds IC50 data, which are given here for 16 compounds.

Holding throughout (type): protein-complex assay
Test [1] deals with T1, Integrin alpha-IIb/beta-3 (Homo sapiens, UniProt P05106+P08514). Kind of test: Inhibition of fibrinogen binding to purified human alpha IIb beta-3 integrin by 50% in an ELISA test.
Test [2] concerns the target T1, Integrin alpha-IIb/beta-3. Nature of the test: Inhibition of fibrinogen binding to purified Human alphaIIb-beta3 integrin in ELISA with 0.1% bovine serum albumin (BSA). On the technique in general: In an ELISA, binding on a coated surface is turned into a signal by an enzyme label.
Test [3] addresses T1, Integrin alpha-IIb/beta-3. Nature of the test: Inhibition of fibrinogen binding to purified Human alphaIIb-beta3 integrin in ELISA with 4.5% bovine serum albumin (BSA).
For test [4], the target named is T1, Integrin alpha-IIb/beta-3. Kind of test: Inhibition of fibrinogen binding to purified Human alphaIIb-beta3 integrin in ELISA with 1% bovine serum albumin (BSA).

Molecules are shown by their SMILES. Positions of bridges follow the written chain, without caps; N, C: chain ends. Non-standard residues stand in square brackets, D forms with d. Residues, ends and D or L forms follow the SMILES beside them. Pen = CC(C)(S)[C@H](N)C(=O)O; Mpa = O=C(O)CCS

T1 sequence (P05106 27-788 limits assumed): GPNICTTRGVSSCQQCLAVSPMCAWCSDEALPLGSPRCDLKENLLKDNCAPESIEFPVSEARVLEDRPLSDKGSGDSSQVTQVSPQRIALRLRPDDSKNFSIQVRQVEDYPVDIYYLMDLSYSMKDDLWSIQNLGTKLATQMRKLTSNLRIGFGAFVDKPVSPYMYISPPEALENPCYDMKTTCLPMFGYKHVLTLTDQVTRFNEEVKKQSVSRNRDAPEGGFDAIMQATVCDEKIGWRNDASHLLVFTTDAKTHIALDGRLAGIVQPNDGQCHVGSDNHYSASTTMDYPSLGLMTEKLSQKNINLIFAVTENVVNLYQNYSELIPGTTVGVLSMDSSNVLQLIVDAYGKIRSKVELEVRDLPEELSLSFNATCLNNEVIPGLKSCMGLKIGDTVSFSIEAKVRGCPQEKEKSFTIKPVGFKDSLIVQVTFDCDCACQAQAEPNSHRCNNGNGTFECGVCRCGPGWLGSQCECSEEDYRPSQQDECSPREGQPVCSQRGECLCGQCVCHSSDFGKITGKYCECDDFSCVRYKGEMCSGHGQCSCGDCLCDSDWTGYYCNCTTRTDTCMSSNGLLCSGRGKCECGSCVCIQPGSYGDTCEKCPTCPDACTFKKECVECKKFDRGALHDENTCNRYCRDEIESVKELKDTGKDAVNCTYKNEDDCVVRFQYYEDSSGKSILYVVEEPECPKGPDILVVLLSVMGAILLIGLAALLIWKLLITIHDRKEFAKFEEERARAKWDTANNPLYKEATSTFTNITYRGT
T1 sequence (P08514 32-887 limits assumed): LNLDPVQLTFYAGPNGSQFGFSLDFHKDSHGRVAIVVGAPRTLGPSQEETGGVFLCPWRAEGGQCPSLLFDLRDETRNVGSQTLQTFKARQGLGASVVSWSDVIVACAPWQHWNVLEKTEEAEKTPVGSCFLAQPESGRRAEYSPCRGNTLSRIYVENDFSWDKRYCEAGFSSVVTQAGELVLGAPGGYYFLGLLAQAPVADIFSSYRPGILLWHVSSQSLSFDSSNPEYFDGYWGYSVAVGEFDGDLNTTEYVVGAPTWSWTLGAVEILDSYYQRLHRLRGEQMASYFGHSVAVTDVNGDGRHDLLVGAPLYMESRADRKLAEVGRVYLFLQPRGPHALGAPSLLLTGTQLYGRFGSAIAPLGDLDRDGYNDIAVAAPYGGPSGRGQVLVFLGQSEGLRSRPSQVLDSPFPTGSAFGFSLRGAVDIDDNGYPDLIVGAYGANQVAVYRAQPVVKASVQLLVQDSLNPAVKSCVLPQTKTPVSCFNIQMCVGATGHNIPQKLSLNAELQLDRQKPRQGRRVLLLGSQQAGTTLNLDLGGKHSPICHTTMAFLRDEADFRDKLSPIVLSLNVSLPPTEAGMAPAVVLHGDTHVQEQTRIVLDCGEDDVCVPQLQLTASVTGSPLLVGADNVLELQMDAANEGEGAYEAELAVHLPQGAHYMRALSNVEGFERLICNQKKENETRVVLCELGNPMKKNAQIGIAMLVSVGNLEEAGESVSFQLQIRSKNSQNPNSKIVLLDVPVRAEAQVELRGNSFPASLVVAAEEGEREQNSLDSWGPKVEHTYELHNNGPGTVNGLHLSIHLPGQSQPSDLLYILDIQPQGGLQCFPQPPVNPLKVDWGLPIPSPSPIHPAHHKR
T1 sequence (P08514 891-1039 limits assumed): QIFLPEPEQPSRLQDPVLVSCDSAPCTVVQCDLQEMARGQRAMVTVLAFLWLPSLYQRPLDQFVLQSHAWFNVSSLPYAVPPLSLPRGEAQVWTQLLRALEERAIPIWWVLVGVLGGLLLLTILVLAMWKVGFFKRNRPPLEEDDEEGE

With `CC1(C)SSCCC(=O)N[C@@H](CCCNC(=N)N)C(=O)NCC(=O)N[C@@H](CC(=O)O)C(=O)N[C@@H](Cc2c[nH]c3ccccc23)C(=O)N2CCC[C@H]2C(=O)N[C@@H]1C(N)=O` ([Mpa]RGDWP[Pen]-NH2; disulfide 1-7), in test [1], the IC50 – broadly, the concentration that gives 50% inhibition – amounted to 100 nM.

With `CCCC(C(=O)O)N1CCc2cc(OCc3ccc(C(=N)N)cc3)ccc2C1=O` (stereo not drawn), the IC50 in test [1] worked out at 1700 nM.

Take `N=C(N)c1ccc(C(=O)Nc2ccc3c(c2)CCN(CC(=O)O)C3=O)cc1`: the IC50 in test [1] worked out at 3 nM.

Turning to `CCCCCCC(CC(=O)O)N1CCc2cc(OCc3ccc(C(=N)N)cc3)ccc2C1=O` (stereo not drawn), the IC50 turned out to be 41 nM in test [2], 310 nM in test [3], 80 nM in test [4] and 41 nM in test [1].

On to `COCCOCC(CC(=O)O)N1CCc2cc(OCc3ccc(C(=N)N)cc3)ccc2C1=O` (stereo not drawn), for which the IC50 in test [1] is 90 nM.

Regarding `N=C(N)c1ccc(COc2ccc3c(c2)CCN(CCC(=O)O)C3=O)cc1`, in test [1], the IC50 was determined as 320 nM.

Turning to `N=C(N)c1ccc(COc2ccc3c(c2)CCN(C(CC(=O)O)c2ccccc2)C3=O)cc1` (stereo not drawn), the IC50 in test [1] was 7 nM.

With `CCC(CC(=O)O)N1CCc2cc(OCc3ccc(C(=N)N)cc3)ccc2C1=O` (stereo not drawn), in test [1], the IC50 stood at 46 nM.

Turning to `COc1ccc(C(CC(=O)O)N2CCc3cc(OCc4ccc(C(=N)N)cc4)ccc3C2=O)cc1` (stereo not drawn), in test [1], the IC50 was determined as 8 nM.

On to `CCCC(CC(=O)O)N1CCc2cc(OCc3ccc(C(=N)N)cc3)ccc2C1=O` (stereo not drawn), for which the IC50 in test [1] was 47 nM.

Compound `CCCCC(CC(=O)O)N1CCc2cc(OCc3ccc(C(=N)N)cc3)ccc2C1=O` (stereo not drawn) showed an IC50 in test [1] of 40 nM.

Turning to `COCCCC(CC(=O)O)N1CCc2cc(OCc3ccc(C(=N)N)cc3)ccc2C1=O` (stereo not drawn), the IC50 in test [1] amounted to 56 nM.

In test [1], `CCCC(CN1CCc2cc(OCc3ccc(C(=N)N)cc3)ccc2C1=O)C(=O)O` (stereo not drawn) gave an IC50 of 1800 nM.

On to `CCCCCC(CC(=O)O)N1CCc2cc(OCc3ccc(C(=N)N)cc3)ccc2C1=O` (stereo not drawn), for which the IC50 is 24 nM in test [2], 100 nM in test [3] and 40 nM in test [4].

As to `CCOCCCC(CC(=O)O)N1CCc2cc(OCc3ccc(C(=N)N)cc3)ccc2C1=O` (stereo not drawn), the IC50 was found to be 61 nM in test [2], 100 nM in test [3] and 73 nM in test [4].

Compound `COC(=O)c1ccc(C(CC(=O)O)N2CCc3cc(OCc4ccc(C(=N)N)cc4)ccc3C2=O)cc1` (stereo not drawn) came in with an IC50 in test [1] of 6 nM.
